Each structure is given as a SMILES string.

The test system of one data set is renal carcinoma cells. Put plainly: Growth inhibition, sulforhodamine B (SRB) assay, 96 h exposure. The class given is cell-based, human. To be noted: normoxia (20% oxygen). The source says:
(§1) A498 human renal, 786-0 human renal, MCF-7 human breast, Mia-Pa-Ca human pancreatic, Panc-1 human pancreatic, and PC-3 human prostate cancer cells were obtained from American Type Culture Collection (Rockville, Md.). Human RCC4 and RCC4/VHL cells were obtained from Professor P. Maxwell (University College London, UK). RCC4 cells lack pVHL therefore express constitutively high levels of HIF-1α. These cells were stably transfected with a wild-type pVHL gene, as previously described. All cells were grown in humidified 95% air, 5% CO2 at 37° C. in Dulbecco's modified Eagle's medium (DMEM), RPMI or MEM medium supplemented with 10% fetal bovine serum (FBS) and 2 mM L-Glutamine according to advice from ATCC (all reagents were obtained from Gibco, Invitrogen, UK). HIF-1α and HIF-2α antibodies were obtained from BD Transduction Labs, AKT antibody was obtained from Cell Signalling Biotechnology, and lamin NC, actin, HIF-1β, HSP-90, and Raf-1 antibodies were from Santa Cruz Biotechnology.

The subject of another data set is Raf-1. Put plainly: Western blotting for Raf-1 in RCC4 and RCC4VHL cells. The class given is cell-based, human. To be noted: CL67 5×IC50, normoxia (20% oxygen).
From the text: as §1
(§2) Western blotting was performed as described previously. Blots were quantified using ImageQuant software (Molecular Dynamics). Nuclear and cytoplasmic extracts were prepared using NE-PER Nuclear and Cytoplasmic Extraction Reagents (Pierce Biotechnology).
(§3) Cells were then lysed and Western blotting was performed. Probing for HSP-90, Raf-1, AKT and actin (as a loading control).

In another data set the test system is HIF-1α mRNA. Put plainly: Reverse transcriptase PCR (qRT-PCR) of HIF-1α transcripts in RCC4 cells. The class given is cell-based, human. To be noted: 4 h, normoxia. (In qPCR the cycle at which signal appears reflects the starting amount.)
The test system of a further data set is HIF-1β. Put plainly: Western blotting for HIF-1β protein. The class given is cell-based, human. To be noted: RCC4 or 786-0 cells, 4 h.
From the text: as §1
(§4) Culture flasks were incubated for various times at 37° C. in humidified air, 5% CO2 (normoxia) or 1% O2, 5% CO2, 94% N2 (hypoxia) using an InVivo Hypoxia Workstation 400 with a Ruskin hypoxic gas mixer (Biotrace International). […]
(§5) Western blotting was performed as described previously. Blots were quantified using ImageQuant software (Molecular Dynamics). […]
(In western blotting, separated proteins are transferred to a membrane and probed.)

The next data set concerns HIF-1α. Put plainly: Western blotting for HIF-1α protein in RCC4 / RCC4VHL cells. The class given is cell-based, human.
From the text: as §1
(§6) Culture flasks were incubated for various times at 37° C. in humidified air, 5% CO2 (normoxia) or 1% O2, 5% CO2, 94% N2 (hypoxia) using an InVivo Hypoxia Workstation 400 with a Ruskin hypoxic gas mixer (Biotrace International). After incubation, cells were washed twice with cold PBS equilibrated with the same gas mixture. In some studies, medium was removed at the end of incubation and stored at […] for measurement of vascular endothelial growth factor (VEGF) levels.
as §2
Cells were then lysed and Western blotting was performed probing for HIF-1α, HIF-2α, HIF-1β, or lamin NC (as a loading control).

Another data set concerns AKT. Put plainly: Western blotting for AKT in RCC4 and RCC4VHL cells. Type of data set: cell-based, human. To be noted: CL67 5×IC50, normoxia (20% oxygen).
From the text: as §1, §2, §3

For a further data set, the system named is VEGF. Put plainly: VEGF measurement in cell culture medium by ELISA. Type of data set: cell-based, human. To be noted: RCC4 cells, CL67 5×IC50 or dose indicated, 4 h or time indicated. The method, then: as §6
In general terms: An ELISA detects its analyte on a solid surface through an enzyme-linked reagent.

For a further data set, the system named is HIF-2α. Put plainly: Western blotting for HIF-2α protein in 786-0 cells. Type of data set: cell-based, human. To be noted: hypoxia (1% oxygen), 4 h dose course.
From the text: as §1, §4, §5

The next data set deals with HIF-1 transactivation. Put plainly: Luciferase reporter assay (hypoxia response element, HRE) in RCC4 cells. The class given is cell-based, human. To be noted: normoxia or hypoxia (1% oxygen), 4 h.
Another data set has as its system HSP-90. Put plainly: Western blotting for HSP-90 in RCC4 and RCC4VHL cells. The class given is cell-based, human. To be noted: CL67 5×IC50, normoxia (20% oxygen).
From the text: as §1, §2, §3

A short description of data set [1]: Solubility limit in aqueous media (dose ranging, sterile dH2O). Type of data set: physicochemical. To be noted: dissolved in sterile dH2O, intra-peritoneal dose ranging in CD1 mice. On the procedure:
A dose range assay was performed in female CD1 mice, with an initial mean weight of 25 g (Harlan UK Ltd,).

Method for HIF-1 transactivation: A pGL3 firefly luciferase reporter plasmid containing the phosphoglycerate kinase hypoxia-responsive element was supplied by Professor P. Maxwell (University College London, UK) [1]. The empty pGL3 control plasmid and the pRL-CMV Renilla luciferase plasmids were obtained from Promega. […] Firefly and Renilla luciferase activities were measured using the Dual Luciferase Reporter Assay System (Promega) according to the manufacturer's instructions.
In FIG. 6(A) RCC4 cells were co-transfected with either a vector expressing luciferase under the control of multiple copies of the hypoxia response element (HRE; kindly donated by G. Mellillo, NCI) or an empty vector control (pGL3) in addition to a vector expressing renilla luciferase (to control for transfection efficiency). […] Luciferase activity was then measured using the Promega Dual Luciferase assay Kit and results are expressed as a percentage of the activity of untreated, normoxic cells.
Method for HIF-1α mRNA: Total RNA was isolated from approximately 10^7 cells using the RNeasy kit (Qiagen, Crawley, UK) according to the manufacturer's protocol. HIF-1α transcripts were quantified using two-step, quantitative real time PCR (qRTPCR). First-strand cDNA synthesis was performed for each sample with a Protoscript M-MuLV Taq RT-PCR kit (New England Biolabs, MA, USA) using 1 μg total RNA and oligo-dT primers. qPCR was performed using Stratagene Brilliant III SYBR Green master mix in a Stratagene MX-3000P instrument (Agilent, Tex., USA) according to the manufacturer's instructions using 2 ng input cDNA and primers at 300 nM. […] Samples were normalised to β-actin. Differences in PCR efficiency were normalised using relative standard curves of cDNA pooled from all samples. P-values were determined for 2000 randomisations.
Cells were then lysed and RNA was prepared using a Qiagen RNeasy kit. RT PCR was then performed to determine relative levels of HIF-1α mRNA in each sample.

In general, melting point refers to the temperature, or range, at which the solid turns liquid. `CCN(CC)CC(=O)Nc1cccc(-n2cc(-c3ccc4ccc(-c5cn(-c6cccc(NC(=O)CN(CC)CC)c6)nn5)cc4c3)nn2)c1` [CL67, N,N′-((4,4′-(Naphthalene-2,7-diyl)bis(1H-1,2,3-triazole-4,1-diyl))bis(3,1-phenylene))bis(2-(diethylamino)acetamide)] returned a melting point of 97 to 99 °C. In the data set on renal carcinoma cells, the “sensitivity of renal cancer cells to inhibition of cell growth compared to other cancer cell lines (breast, pancreatic, prostate)” value was “enhanced sensitivity”. The “expression of Raf-1 (Western blot)” value in the data set with Raf-1 is “No differences”. Also, the “relative expression of HIF-1α mRNA compared to untreated control cells (RT PCR)” value with HIF-1α mRNA is “inhibits formation of HIF-1α mRNA”. The “HIF-1β protein level (Western blot)” value with HIF-1β is “did not affect”. Besides, the “HIF-1α protein (Western blot) in RCC4VHL cells” value with HIF-1α (RCC4VHL cells (stably transfected with pVHL), 0, 1, 5 or 10×IC50, normoxia or hypoxia (1% oxygen)) is “inhibited”. Besides, in the data set on HIF-1α (RCC4 cells, 0, 1, 5 or 10×IC50, normoxia (20% oxygen) or hypoxia (1% oxygen)), the “HIF-1α protein (Western blot) in RCC4 cells (lacking pVHL)” value was “inhibited”. Moreover, the “HIF-1α protein level (Western blot)” value in the data set with HIF-1α (RCC4 cells, normoxia, 4 h dose course, time course at 5×IC50) is “inhibited”. The “expression of AKT (Western blot)” value in the data set with AKT was “No differences”. In addition, in the data set with VEGF, the “VEGF levels in medium (ELISA)” value was “inhibited”. Also, the “HIF-2α protein level (Western blot)” value with HIF-2α was “inhibited”. Moreover, the “HIF-1 transactivation (HRE luciferase activity)” value in the data set with HIF-1 transactivation was “inhibited”. In addition, in the data set on HSP-90, the “expression of HSP90 (Western blot)” value is recorded as “No differences”. The “solubility limit of the drug in aqueous media” value in [1] came out at 10 mg/kg.
